Source: US20220169654A1, “New Organic Compounds” (Servier Pharmaceuticals LLC, priority 2020, published 2022)

Key:
[1] = test system: HCT116 MTAP+/+; assay: Inhibition of cellular proliferation, 4 days, Cell Titer Glo, HCT116 MTAP+/+; assay type: cell-based; conditions: Homo sapiens, HCT-116, 96 h, IC50 bin with Max Inh., read-out: 4 Day Relative Growth Inhibition (MTAP +/+)
Method in brief: (§1)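 Isogenic HCT116 pair differing only in MTAP status, plated 24 h before treatment with 10-point 3-fold dilutions; 4 days at 37° C./5% CO2. Cell Titer Glo luminescence, blank-subtracted and normalised to 0.2% DMSO control, gives percentage proliferation vs log molar concentration for IC50.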

[2] = test system: HCT116 MTAP−/−; assay: Inhibition of cellular proliferation, 4 days, Cell Titer Glo, HCT116 MTAP−/−; assay type: cell-based; conditions: Homo sapiens, HCT-116, 96 h, IC50 bin with Max Inh., read-out: 4 Day Relative Growth Inhibition (MTAP −/−)
Method in brief: as §1

[3] = target: T1, MAT2A homodimer (Homo sapiens, UniProt P31153); assay: MAT2A inhibition (biochemical, liberated phosphate, PiColorLock Gold); conditions: recombinant MAT2A homodimer; IC50 bin with Max Inh.; read-out: Enzyme Inhibition Bin
T1 construct: inferred from Ni sepharose purification with imidazole elution; made in house; host or cells: Sf9 insect cells, baculovirus (Bac to Bac, pFASTBAC1)
T1 sequence (P31153 whole entry): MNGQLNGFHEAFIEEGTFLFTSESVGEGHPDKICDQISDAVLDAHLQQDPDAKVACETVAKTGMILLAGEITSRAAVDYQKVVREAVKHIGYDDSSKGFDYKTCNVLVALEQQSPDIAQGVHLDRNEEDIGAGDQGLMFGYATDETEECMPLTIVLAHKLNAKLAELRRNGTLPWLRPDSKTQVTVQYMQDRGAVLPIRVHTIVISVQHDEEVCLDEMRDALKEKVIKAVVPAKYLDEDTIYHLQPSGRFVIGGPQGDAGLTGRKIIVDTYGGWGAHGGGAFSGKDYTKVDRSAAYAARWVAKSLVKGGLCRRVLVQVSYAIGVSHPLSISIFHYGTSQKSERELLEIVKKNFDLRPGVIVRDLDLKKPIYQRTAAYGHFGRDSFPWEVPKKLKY
Method in brief: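 Baculovirus/Sf9-expressed, Ni-purified MAT2A (4 μg/mL) preincubated with compound 60 min at 25 °C in Tris pH 8.0/KCl/MgCl2 buffer. Reaction started with 500 μM ATP and 400 μM L-methionine (substrate-mix concentrations), run 60 min at 25 °C. Phosphate measured colorimetrically against a phosphate standard curve to give IC50.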

[4] = test system: SAM in HCT116 human colon carcinoma cell line with MTAP gene deleted (MTAP −/−); assay: Cellular assay of target engagement (SAM), LC-MS/MS, 72 hrs; assay type: cell-based; conditions: HCT-116, IC50 bin with Max Inh., read-out: Cell 72 h SAM Inhibition (MTAP −/−)
Method in brief: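 MTAP-deleted HCT116 cells plated 24 h, then given 10-point 3-fold dilutions for 72 hrs at 37° C. Intracellular SAM extracted in cold 80% methanol with 1M acetic acid and d3-SAM standard, quantified by LC-MS/MS (MRM m/z 399.2→250.1); IC50 derived.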

SMILES	IC50 [1] [nM]	IC50 [2] [nM]	IC50 [3] [nM]	IC50 [4] [nM]
Cn1cc2cc(-n3nc4c(C#N)cn(CC5CC5)c4c(-c4ccc(Cl)cc4)c3=O)ccc2n1 [Example 139, 4-(4-chlorophenyl)-5-(cyclopropylmethyl)-2-(2-methyl-2H-indazol-5-yl)-3-oxo-3,5-dihydro-2H-pyrrolo[3,2-c]pyridazine-7-carbonitrile]	< 100	< 100	< 100	< 100
Cc1nc2ccc(-n3nc4ccn(CC5CC5)c4c(-c4ccc(C(F)F)nc4)c3=O)cc2n1C [Example 140, 5-(cyclopropylmethyl)-4-(6-(difluoromethyl)pyridin-3-yl)-2-(1,2-dimethyl-1H-benzo[d]imidazol-6-yl)-2,5-dihydro-3H-pyrrolo[3,2-c]pyridazin-3-one]	100 to 1000	< 100	< 100	< 100
CCCn1cc(C#N)c2nn(-c3ccc4nn(C)cc4c3)c(=O)c(-c3ccc(C)nc3)c21 [Example 145, 2-(2-methyl-2H-indazol-5-yl)-4-(6-methylpyridin-3-yl)-3-oxo-5-propyl-3,5-dihydro-2H-pyrrolo[3,2-c]pyridazine-7-carbonitrile]	100 to 1000	100 to 1000	< 100	100 to 1000
Cc1nc2ccc(-n3nc4c(C#N)cn(CC5CC5)c4c(-c4ccc(C5CC5)nc4)c3=O)cc2n1C [Example 148, 5-(cyclopropylmethyl)-4-(6-cyclopropylpyridin-3-yl)-2-(1,2-dimethyl-1H-benzo[d]imidazol-6-yl)-3-oxo-3,5-dihydro-2H-pyrrolo[3,2-c]pyridazine-7-carbonitrile]	< 100	< 100	< 100	< 100
CCc1ccc(-c2c(=O)n(-c3ccc4nc(C)n(C)c4c3)nc3c(C#N)cn(CC4CC4)c23)cn1 [Example 152, 5-(cyclopropylmethyl)-2-(1,2-dimethyl-1H-benzo[d]imidazol-6-yl)-4-(6-ethylpyridin-3-yl)-3-oxo-3,5-dihydro-2H-pyrrolo[3,2-c]pyridazine-7-carbonitrile]	> 1000	< 100	< 100	< 100
Cn1cc2cc(-n3nc4ccn(CC5CC5)c4c(-c4ccc(CO)nc4)c3=O)ccc2n1 [Example 157, 5-(cyclopropylmethyl)-4-(6-(hydroxymethyl)pyridin-3-yl)-2-(2-methyl-2H-indazol-5-yl)-2,5-dihydro-3H-pyrrolo[3,2-c]pyridazin-3-one]	100 to 1000	< 100	< 100	< 100
Cn1cc2cc(-n3nc4c(C#N)cn(CC5CC5)c4c(-c4ccc(CO)nc4)c3=O)ccc2n1 [Example 158, 5-(cyclopropylmethyl)-4-(6-(hydroxymethyl)pyridin-3-yl)-2-(2-methyl-2H-indazol-5-yl)-3-oxo-3,5-dihydro-2H-pyrrolo[3,2-c]pyridazine-7-carbonitrile]	> 1000	100 to 1000	< 100	100 to 1000
Cn1cc2cc(-n3nc4c(C#N)cn(CC5CCC5)c4c(-c4ccc(C5CC5)nc4)c3=O)ccc2n1 [Example 159, 5-(cyclobutylmethyl)-4-(6-cyclopropylpyridin-3-yl)-2-(2-methyl-2H-indazol-5-yl)-3-oxo-3,5-dihydro-2H-pyrrolo[3,2-c]pyridazine-7-carbonitrile]	> 1000	100 to 1000	< 100	< 100
N#Cc1cn(CC2CC2)c2c(-c3ccc(C4CC4)nc3)c(=O)n(-c3ccc4nn(CC5CC5)cc4c3)nc12 [Example 160, 5-(cyclopropylmethyl)-2-(2-(cyclopropylmethyl)-2H-indazol-5-yl)-4-(6-cyclopropylpyridin-3-yl)-3-oxo-3,5-dihydro-2H-pyrrolo[3,2-c]pyridazine-7-carbonitrile]	100 to 1000	< 100	< 100	< 100

Now from value to compound:

IC50 [1] [nM]	IC50 [2] [nM]	IC50 [3] [nM]	IC50 [4] [nM]	SMILES
100 to 1000	< 100	< 100	< 100	Cc1ccc(-c2c(=O)n(-c3ccc4nc(C)n(C)c4c3)nc3ccn(CC4CC4)c23)cn1 [Example 141, 5-(cyclopropylmethyl)-2-(1,2-dimethyl-1H-benzo[d]imidazol-6-yl)-4-(6-methylpyridin-3-yl)-2,5-dihydro-3H-pyrrolo[3,2-c]pyridazin-3-one]
> 1000	< 100	< 100	< 100	CCc1ccc(-c2c(=O)n(-c3ccc4nc(C)n(C)c4c3)nc3ccn(CC4CC4)c23)cn1 [Example 142, 5-(cyclopropylmethyl)-2-(1,2-dimethyl-1H-benzo[d]imidazol-6-yl)-4-(6-ethylpyridin-3-yl)-2,5-dihydro-3H-pyrrolo[3,2-c]pyridazin-3-one]
100 to 1000	< 100	< 100	< 100	Cn1cc2cc(-n3nc4c(C#N)cn(CC5CC5)c4c(-c4ccc(C(F)F)nc4)c3=O)ccc2n1 [Example 143, 5-(cyclopropylmethyl)-4-(6-(difluoromethyl)pyridin-3-yl)-2-(2-methyl-2H-indazol-5-yl)-3-oxo-3,5-dihydro-2H-pyrrolo[3,2-c]pyridazine-7-carbonitrile]
> 1000	> 1000	100 to 1000	100 to 1000	CNC(=O)c1ccc(-c2c(=O)n(-c3ccc4nn(C)cc4c3)nc3ccn(CC4CC4)c23)cn1 [Example 144, 5-(5-(cyclopropylmethyl)-2-(2-methyl-2H-indazol-5-yl)-3-oxo-3,5-dihydro-2H-pyrrolo[3,2-c]pyridazin-4-yl)-N-methylpicolinamide]
100 to 1000	< 100	< 100	< 100	Cc1nc2ccc(-n3nc4c(C#N)cn(CC5CC5)c4c(-c4ccc(C(F)F)nc4)c3=O)cc2n1C [Example 147, 5-(cyclopropylmethyl)-4-(6-(difluoromethyl)pyridin-3-yl)-2-(1,2-dimethyl-1H-benzo[d]imidazol-6-yl)-3-oxo-3,5-dihydro-2H-pyrrolo[3,2-c]pyridazine-7-carbonitrile]
> 1000	100 to 1000	< 100	100 to 1000	Cn1cc2cc(-n3nc4c(C#N)cn(CC5CC5)c4c(-c4ccc(C#N)cc4)c3=O)ccc2n1 [Example 149, 4-(4-cyanophenyl)-5-(cyclopropylmethyl)-2-(2-methyl-2H-indazol-5-yl)-3-oxo-3,5-dihydro-2H-pyrrolo[3,2-c]pyridazine-7-carbonitrile]
> 1000	< 100	< 100	< 100	Cn1cc2cc(-n3nc4ccn(CC5CC5)c4c(-c4ccc(C5CC5)cc4)c3=O)ccc2n1 [Example 150, 5-(cyclopropylmethyl)-4-(4-cyclopropylphenyl)-2-(2-methyl-2H-indazol-5-yl)-2,5-dihydro-3H-pyrrolo[3,2-c]pyridazin-3-one]
> 1000	< 100	< 100	< 100	Cc1ccc(-c2c(=O)n(-c3ccc4nc(C)n(C)c4c3)nc3c(C#N)cn(CC4CC4)c23)cn1 [Example 151, 5-(cyclopropylmethyl)-2-(1,2-dimethyl-1H-benzo[d]imidazol-6-yl)-4-(6-methylpyridin-3-yl)-3-oxo-3,5-dihydro-2H-pyrrolo[3,2-c]pyridazine-7-carbonitrile]
> 1000	> 1000	100 to 1000	100 to 1000	Cn1cc2cc(-n3nc4ccn(CC5CC5)c4c(-c4ccc(C#N)nc4)c3=O)ccc2n1 [Example 153, 5-(5-(cyclopropylmethyl)-2-(2-methyl-2H-indazol-5-yl)-3-oxo-3,5-dihydro-2H-pyrrolo[3,2-c]pyridazin-4-yl)picolinonitrile]
100 to 1000	100 to 1000	< 100	100 to 1000	Cn1cc2cc(-n3nc4ccn(CC5CC5)c4c(-c4ccc(C#N)cc4)c3=O)ccc2n1 [Example 154, 4-(5-(cyclopropylmethyl)-2-(2-methyl-2H-indazol-5-yl)-3-oxo-3,5-dihydro-2H-pyrrolo[3,2-c]pyridazin-4-yl)benzonitrile]
> 1000	100 to 1000	< 100	100 to 1000	Cn1cc2cc(-n3nc4ccn(CC5CC5)c4c(-c4ccc(C(N)=O)nc4)c3=O)ccc2n1 [Example 155, 5-(5-(cyclopropylmethyl)-2-(2-methyl-2H-indazol-5-yl)-3-oxo-3,5-dihydro-2H-pyrrolo[3,2-c]pyridazin-4-yl)picolinamide]
< 100	< 100	< 100	< 100	Cc1nc2ccc(-n3nc4ccn(CC5CC5)c4c(-c4ccc(C5CC5)nc4)c3=O)cc2n1C [Example 156, 5-(cyclopropylmethyl)-4-(6-cyclopropylpyridin-3-yl)-2-(1,2-dimethyl-1H-benzo[d]imidazol-6-yl)-2,5-dihydro-3H-pyrrolo[3,2-c]pyridazin-3-one]
